Results taken from PubChem BioAssay AID1996.
≈ marks a conversion by molar mass, not a printed value.

conditions: buffer; pH 7.4; 200.0 µM

`CC(=O)OC(C)C[N+](C)(C)C.[Cl-]` (centres undefined) and `CC(C)NC(=O)COC(=O)c1ccccc1C(=O)c1ccccc1` cannot be ordered by solubility kinetic: over 29.4 µg/mL for the first, over 48.8 µg/mL for the second.

First: CC(NC(=O)CCC(=O)c1ccccc1)c1ccc(F)cc1 (centres undefined)
Second: CCC(=O)Nc1ccc(C(=O)OCc2ccccc2)cc1
The solubility kinetic of the first is higher: over 44.9 µg/mL for the first, 8.6 µg/mL (≈ 30.4 µM) for the second.

First: CC1CCCCN1Cc1ccc(Cl)nc1 (centres undefined)
Second: CC(C#N)Sc1ccc(S(=O)(=O)N2CCCC2)cn1 (centres undefined)
The solubility kinetic of the first is 2.4-fold lower: 15.5 µg/mL (≈ 69 µM) for the first, 37.7 µg/mL (≈ 127 µM) for the second.

Going from `CCN(CC(=O)NCc1ccco1)S(=O)(=O)c1ccc(OC)cc1` to `Cc1ccc(S(=O)(=O)N(C)CC(=O)NCC(=O)Nc2ccc(F)c(F)c2F)cc1`, the solubility kinetic falls from over 52.9 µg/mL to 6.4 µg/mL (≈ 14.9 µM).

Compared with `O=C(NCc1ccc2c(c1)OCO2)c1ccccc1`, `O=C(CSc1ccccc1)Nc1ccc2c(c1)OCCO2` is higher in solubility kinetic: 38 µg/mL (≈ 149 µM) for the first, over 45.2 µg/mL for the second.

First: Cc1cccc(OCC(=O)NCCNC(=O)c2ccccn2)c1
Second: Cc1ccnc(NC(=O)c2cc3ccccc3o2)c1
The solubility kinetic of the first is higher: over 47 µg/mL for the first, 12.9 µg/mL (≈ 51.1 µM) for the second.

Compared with `CCC(=NCc1ccco1)c1c(O)n(C)c(=O)n(C)c1=O`, `CN=C1S/C(=C/c2cn(CC(=O)OC)c3ccccc23)C(=O)N1C` is lower in solubility kinetic: over 43.7 µg/mL for the first, 4.1 µg/mL (≈ 11.9 µM) for the second.

Going from `Cc1ccc(/C(O)=C/C(=O)C(=O)NC23CC4CC(CC(C4)C2)C3)cc1` to `COC(=O)c1ccc(COC(=O)CNC(=O)C2CCCCC2)cc1`, the solubility kinetic rises from 8.4 µg/mL (≈ 24.7 µM) to 16.3 µg/mL (≈ 48.9 µM) (1.9-fold).

Going from `O=C(Nc1ccc(OC(F)(F)F)cc1)c1ccc2c(c1)no[n+]2[O-]` to `COc1cc(NC(=O)c2ccc(S(=O)(=O)N(C)c3ccccc3)cc2)cc(OC)c1`, the solubility kinetic rises from 1.1 µg/mL (≈ 3.24 µM) to 5 µg/mL (≈ 11.7 µM) (4.5-fold).

Compared with `Cn1c(NC2CCCCC2)cc(=O)n(C)c1=O`, `COc1ccc(OC)c(NC(=O)COC(=O)CC2CCCCC2)c1` is lower in solubility kinetic: over 35.6 µg/mL for the first, 19 µg/mL (≈ 56.6 µM) for the second.

`COC(=O)c1cc(S(=O)(=O)NCc2cccs2)c[nH]1` and `COc1cccc(OCCNS(=O)(=O)c2cccc([N+](=O)[O-])c2)c1` cannot be ordered by solubility kinetic: over 45.1 µg/mL for the first, 46.6 µg/mL (≈ 132 µM) for the second.

`Cc1ccc(S(=O)(=O)CCN2C=CC(C(F)(F)F)=NCC2)cc1` and `O=C(O)c1nn(-c2ccc(F)cc2)ccc1=O` cannot be ordered by solubility kinetic: 51.4 µg/mL (≈ 148 µM) for the first, over 35.1 µg/mL for the second.

First: O=C(CCc1ccccc1)Nc1cc2c3c(c1)CCC(=O)N3CCC2
Second: CNC(=O)CN1C(=O)NC2(CCc3ccccc3C2)C1=O (centres undefined)
The solubility kinetic of the first is lower: 40.3 µg/mL (≈ 121 µM) for the first, over 43.1 µg/mL for the second.

Compared with `CC1CCN(C(=S)c2cccc(O)c2)CC1`, `CC1CC(C)CN(C(=O)COc2ccc([N+](=O)[O-])cc2Cl)C1` (centres undefined) is 3-fold lower in solubility kinetic: 32.8 µg/mL (≈ 139 µM) for the first, 11 µg/mL (≈ 33.7 µM) for the second.

Compared with `Clc1cccc(Cl)c1-c1noc(CN2CCOCC2)n1`, `CCCN1CN=C(Nc2nc3ccccc3o2)NC1` is 1.7-fold lower in solubility kinetic: 31.8 µg/mL (≈ 101 µM) for the first, 18.9 µg/mL (≈ 72.9 µM) for the second.

Going from `O=S(=O)(Nc1cccc2ccccc12)c1cccc2nonc12` to `NC(=O)c1ccccc1NCC(=O)c1ccc(Cl)cc1`, the solubility kinetic falls from over 48.8 µg/mL to 2.9 µg/mL (≈ 10 µM).

`O=C(CCc1nc2ccccc2s1)NC1CCOC1=O` (centres undefined) and `Cc1nn(CC(=O)N2CCN(C)CC2)c(=O)c2ccccc12` cannot be ordered by solubility kinetic: over 43.6 µg/mL for the first, over 45.1 µg/mL for the second.

`O=C(O)c1cc([N+](=O)[O-])c(NCCC2=CCCCC2)c([N+](=O)[O-])c1` and `Cc1ccc2c(c1)C(=O)CCCCC(=O)N2` cannot be ordered by solubility kinetic: over 50.3 µg/mL for the first, over 32.6 µg/mL for the second.

Compared with `CC(=O)N/C(=N\c1nc(C)cc(C)n1)Nc1ccc2ccccc2c1`, `CC(=O)c1cccc(NC(=S)NCc2ccccc2)c1` is 13-fold higher in solubility kinetic: 0.5 µg/mL (≈ 1.5 µM) for the first, 6.4 µg/mL (≈ 22.5 µM) for the second.

Compared with `COc1ccccc1C1=NC(c2ccccc2)CN1c1ccccc1` (centres undefined), `COc1ccccc1NC(=S)N1CCn2cccc2C1c1cccnc1` (centres undefined) is 70-fold higher in solubility kinetic: 0.6 µg/mL (≈ 1.83 µM) for the first, 42.2 µg/mL (≈ 116 µM) for the second.

`O=C(NC(=S)N1CCc2ccccc21)c1ccccc1Cl` and `CC(=O)Nc1ccccc1C(=O)OCc1ccccc1F` are within 1.5-fold of each other in solubility kinetic: 46.6 µg/mL (≈ 147 µM) for the first, 32 µg/mL (≈ 111 µM) for the second.

First: COCCC(=O)N1CCc2c([nH]c3ccccc23)C1C(C)(C)C (centres undefined)
Second: CN1OC[C@@H]2COc3ccc4ccccc4c3[C@@H]21
The solubility kinetic of the first is higher: over 47.2 µg/mL for the first, 33.1 µg/mL (≈ 137 µM) for the second.

First: CC1CN(CC(=O)Nc2ccc([N+](=O)[O-])cc2Br)CC(C)O1 (centres undefined)
Second: CC1CN(C(=O)COC(=O)c2ccc3ncsc3c2)CC(C)O1 (centres undefined)
The solubility kinetic of the first is lower: 6.4 µg/mL (≈ 17.2 µM) for the first, over 50.2 µg/mL for the second.

First: CCSc1nc(-c2cccs2)nc2ccccc12
Second: COCCn1c(-c2cccs2)nc2nc3ccccc3nc21
The solubility kinetic of the first is 130-fold lower: 0.3 µg/mL (≈ 1.1 µM) for the first, 39.7 µg/mL (≈ 128 µM) for the second.

Compared with `COc1ccc(C)cc1NC(=S)Nc1ccccc1SC`, `COc1ccccc1CC(=O)Nc1ccc(F)cc1F` is higher in solubility kinetic: 10.5 µg/mL (≈ 33 µM) for the first, over 41.6 µg/mL for the second.

First: COc1ccc(C(C)(C)C)cc1NC(=O)C1=CC=CN2CCS(=O)(=O)N=C12
Second: COC(C(=O)Nc1ccc(Br)cc1F)c1ccccc1 (centres undefined)
The solubility kinetic of the first is 15-fold lower: 1.7 µg/mL (≈ 4.36 µM) for the first, 26.1 µg/mL (≈ 77.2 µM) for the second.

First: CC(C)C(=O)Nc1nc2cc3c(cc2s1)OCCO3
Second: CN(C)CCN=Cc1c(O)n(Cc2ccc3c(c2)OCO3)c(=O)c2ccccc12
The solubility kinetic of the first is 2.3-fold higher: 37.4 µg/mL (≈ 134 µM) for the first, 16.3 µg/mL (≈ 41.4 µM) for the second.

First: CCCCCC(=O)Nc1ccc(-c2csc(N)n2)cc1
Second: CN(CC(=O)Nc1ccccc1Cl)C(=O)COC(=O)c1cccs1
The solubility kinetic of the first is lower: 5.9 µg/mL (≈ 20.4 µM) for the first, over 55 µg/mL for the second.

`CC(OC(=O)c1cn(C)c2ccccc12)C(=O)N1CCCC1` (centres undefined) and `CCC1Oc2ccc(C)cc2N(CC(=O)N2CCCC2)C1=O` (centres undefined) cannot be ordered by solubility kinetic: over 45.1 µg/mL for the first, over 45.4 µg/mL for the second.

Work on `Cc1cc(Cc2ccc([N+](=O)[O-])cc2)c(C)cn1` yielded a solubility kinetic of over 36.3 µg/mL.
